Assay results published in patent publication US8389530B2, “Substituted quinazoline compounds” (Fovea Pharmaceuticals, priority 2008, dated 2013).
In brackets after ≈: the same amount, converted by molar mass. Where two headings read alike, the source gives them in different places.

What was measured:
[1] = Solubility in aqueous buffer at pH 5 (HPLC/UV); format: physicochemical; conditions: acetic acid/KOH buffer pH 5, stirred 24 h at room temperature; for solubility at 24 h: acetic acid/KOH buffer, pH 5, aqueous buffer, thermodynamic from solid
Description: Solubility of Compounds was determined in aqueous medium using the following procedure.
Two mg of Compound was added to 200 μl buffer (acetic acid/KOH) solution at pH 5. Solution was then stirred for 24 h at room temperature and then centrifuged 10 min at 16,000 rpm. Corresponding supernatants were analyzed by HPLC and UV detection. Calculation of a given Compound concentration was performed by reporting area under the experimental slope onto a calibration slope obtained separately using DMSO-solubilised Compound at different concentrations.

[2] = Colour of compounds; format: physicochemical
[3] = tested on: Src tyrosine kinase; conditions: in vivo; cited from earlier work
[4] = tested on: VEGF-induced blood retinal barrier breakdown; experiment: Inhibition of vascular leakage in a rat model of VEGF-induced blood-retinal barrier breakdown; format: in vivo; conditions: topical 0.51% (5.1 mg/ml) six times over 27 h after intravitreal VEGF, Evans blue
Description: We investigated the efficacy of topical administration of compound II of the invention in reducing the retinal leakage in a VEGF-induced blood retinal barrier breakdown in the rat.
Rats were treated by a single intravitreal injection of 5 μl (100 ng) recombinant human VEGF164 (RD Systems) into each eye.
During twenty-seven hours following VEGF injection, 0.51% test compound II of the Invention (5.1 mg/ml buffer pH 5 with 30% cyclodextrin) and control without compound of the Invention were administered six times by topical administration (10 μl) in eyes of sixteen rats.
Twenty-seven hours later after the VEGF challenge, Evans blue dye (45 mg/kg) was injected intravenously and the dye was allowed to circulate during two hours.
Then, each rat was infused with 0.05M citrate buffer pH 3.5 (37° C.) for 2 minutes to allow clearance of the dye. Immediately after said perfusion, both eyes were enucleated and Evans blue dye was extracted by incubating each retina in formamide (Qaum et al Invest. Ophthalmol. Vis. Sci. 2001, Vol 42, No 10). Afterward, the absorbance was measured with a spectrophotometer at 620 nm.
Breakdown of blood-retinal barrier was proportional to the concentration of Evans blue in the retina normalized by Evans blue concentrations in the plasma.

[5] = tested on: VEGF-induced blood retinal barrier breakdown; experiment: Inhibition of vascular leakage in a rabbit model of VEGF-induced blood-retinal barrier breakdown; format: in vivo; conditions: topical 3% (30 mg/ml) 4 times daily for four days, 48 h after intravitreal VEGF, ocular fluorophotometry
Description: Intravitreal injection of VEGF in the rabbit eye produces massive retinal vascular leakage (Edelman and Lutz, 2003, Invest. Ophthalmol. Vis. Sci. 2003; 44:ARVO e-abstract No. 328). Based on said animal model, we investigated the efficacy of topical administration of compound 7 of the invention in reducing the retinal leakage in a VEGF-induced blood retinal barrier breakdown in the rabbit. During four days, 3% test compound 7 (30 mg/ml, 10% PEG 400, 87% labrafil) or control items without compound of the Invention were administered 4 times daily by topical administration (50 μl) in the right eye of five rabbits. On day two, animals received a single intravitreal injection of 50 μl (500 ng) recombinant human VEGF 165 (RD systems) into right eye. Forty-seven hours after the VEGF challenge (day four), fluorescein was injected via the marginal ear vein and circulate during one hour. Breakdown of the blood-retinal barrier was evaluated 48 h after VEGF challenge by measuring fluorescein contents into the vitreoretinal compartment using non-invasive scanning ocular fluorophotometry.

SMILES	Solubility (pH 5) in % [1] [%]	solubility at 24 h [1] [µg/mL]	Colour [2]	other results
Cc1cc(-c2cc(O)ccc2Cl)cc2cnc(Nc3ccc(OCCN4CCCC4)cc3)nc12.Cl [Compound 18, 1-(2-{4-[6-(2-Chloro-5-hydroxy-phenyl)-8-methyl-quinazolin-2-ylamino]-phenoxy}-ethyl)-pyrrolidinium; chloride]	0.67	6700	Pale yellow	–
Cc1cccc(C)c1-c1ccc2nc(Nc3ccc(OCCN4CCC[C@@H]4C(=O)O)cc3)ncc2c1 [8 Chlorhydrate, (R)-1-(2-{4-[6-(2,6-Dimethyl-phenyl)-quinazolin-2-ylamino]-phenoxy}-ethyl)-pyrrolidine-2-carboxylic acid]	1	–	Pale yellow	Solubility (pH 5) in mg/ml [1]: 10 mg/ml
Cc1cccc(C)c1-c1ccc2nc(Nc3ccc(N4CCN(CCN5CCCC5)C4=O)cc3)ncc2c1 [9 Chlorhydrate, 1-{4-[6-(2,6-Dimethyl-phenyl)-quinazolin-2-ylamino]-phenyl}-3-(2-pyrrolidin-1-yl-ethyl)-imidazolidin-2-one]	0.35	3500	Pale yellow	–
Cc1ccc(-c2nn(C(C)(C)C)c3ncnc(N)c23)cc1 [PP1]	–	–	–	breakdown of the brain-blood barrier (BBB) [3]: decrease breakdown of the brain-blood barrier (BBB); expression of VEGF [3]: reduce expression of VEGF; oedema [3]: decrease oedema
Cc1cccc(C)c1-c1ccc2nc(Nc3ccc(OCCN4CCCC4)cc3)ncc2c1 [6 Chlorhydrate, [6-(2,6-Dimethyl-phenyl)-quinazolin-2-yl]-[4-(2-pyrrolidin-1-yl-ethoxy)-phenyl]-amine]	0.09	900	Pale yellow	–
Cc1cccc(C)c1-c1ccc2nc(Nc3ccc(OCC(=O)N4CC[C@@H](N(C)C)C4)cc3)ncc2c1 [compound 14, 1-((R)-3-Dimethylamino-pyrrolidin-1-yl)-2-{4-[6-(2,6-dimethyl-phenyl)-quinazolin-2-ylamino]-phenoxy}-ethanone]	0.01	140 (≈ 282 µM)	Pale yellow	–
Cc1cccc(C)c1-c1ccc2nc(Nc3ccc(N4CCN(C(=O)c5ccncc5)CC4)cc3)ncc2c1 [compound 11, (4-{4-[6-(2,6-Dimethyl-phenyl)-quinazolin-2-ylamino]-phenyl}-piperazin-1-yl)-pyridin-4-yl-methanone]	–	–	–	reduction of vascular leakage compared to control [4]: 56%
Oc1ccc(Cl)c(-c2ccc3nc(Nc4ccc(OCCN5CCCC5)cc4)ncc3c2)c1 [7 base form, 4-Chloro-3-{2-[4-(2-pyrrolidin-1-yl-ethoxy)-phenylamino]-quinazolin-6-yl}-phenol]	0.03	340 (≈ 738 µM)	Yellow	–
Oc1ccc(Cl)c(-c2ccc3nc(Nc4ccc(OCCN5CCCCCC5)cc4)ncc3c2)c1 [compound 16, 3-{2-[4-(2-Azepan-1-yl-ethoxy)-phenylamino]-quinazolin-6-yl}-4-chloro-phenol]	0.05	500 (≈ 1020 µM)	Pale yellow	–
CN(C)[C@@H]1CCN(C(=O)COc2ccc(Nc3ncc4cc(-c5cc(O)ccc5Cl)ccc4n3)cc2)C1 [13 base form]	0.03	–	Pale green	Solubility (pH 5) in mg/ml [1]: 0.29 mg/ml
O=C1N(CCN2CCCC2)CCN1c1ccc(Nc2ncc3cc(-c4cc(O)ccc4Cl)ccc3n2)cc1 [12 Chlorhydrate, 1-{4-[6-(2-Chloro-5-hydroxy-phenyl)-quinazolin-2-ylamino]-phenyl}-3-(2-pyrrolidin-1-yl-ethyl)-imidazolidin-2-one]	0.45	4500	Pale yellow	–
Cl.Oc1ccc(Cl)c(-c2ccc3nc(Nc4ccc(OCCN5CCCC5)cc4)ncc3c2)c1 [compound 7, 4-Chloro-3-{2-[4-(2-pyrrolidin-1-yl-ethoxy)-phenylamino]-quinazolin-6-yl}-phenol; hydrochloride]	0.19	1900	Pale yellow	reduction of vascular leakage compared to control [5]: 41%
Cc1cccc(C)c1-c1ccc2nc(Nc3ccc(OCCN4CCC[C@@H]4C(=O)O)cc3)ncc2c1 [compound 8, (R)-1-(2-{4-[6-(2,6-Dimethyl-phenyl)-quinazolin-2-ylamino]-phenoxy}-ethyl)-pyrrolidine-2-carboxylic acid]	–	–	–	Solubility (pH 5) in % ([1]; listed as 8 base form): 0.04%; Solubility (pH 5) in mg/ml ([1]; listed as 8 base form): 0.4 mg/ml; Colour ([2]; listed as 8 base form): Orange
Cc1cccc(C)c1-c1ccc2nc(Nc3ccc(N4CCNCC4)cc3)ncc2c1 [compound 17, [6-(2,6-Dimethyl-phenyl)-quinazolin-2-yl]-(4-piperazin-1-yl-phenyl)-amine]	0.63	6300 (≈ 15400 µM)	brown	–
